Molecules are shown by their SMILES. Values joined by “and” are separate entries in the source; they are usually repeats but may differ in a detail not shown here. Equal entries are not always repeated. A value given as a limit tells only on which side of the number the result lay.

Assay [1] has as its target T1, FLAG-Avi-DDB1 and His-CDK12KD G731R/His-CCNKΔC (Homo sapiens, UniProt Q9NYV4, G731R).
T1 construct: Human CDK12KD (residues 715–1052); made in house; host or cells: Sf9 or High Five (CDK12KD/CCNKΔC, co-infected with yeast CAK1); 293F with BirA (FLAG-Avi-DDB1)
As to the kind of experiment: AlphaScreen assay, G731R. In kind it is binding. The conditions noted are these: for AlphaScreen: G731R, raw signal. On the procedure: (§1) Biotinylated FLAG-Avi-DDB1 (3 µM) and 6xHis-CDK12KD/6xHis-CCNKΔC (WT or G731E/R mutants) (3 µM) were mixed in an assay buffer (50 mM HEPES, pH7.5, 300 mM NaCl, 0.5 mM TCEP, 0.1% NP-40, 0.1% BSA) and a serial dilution of HQ461.The protein-compound mix was transferred to 384-well plates (Corning, Corning, USA); 15 μL per well. After a 1 hr room temperature incubation, 10 µL of nickel chelate (Ni-NTA) acceptor beads (PerkinElmer, Waltham, USA, Waltham, USA, 6760619C) (1:100 diluted with assay buffer) was added per well. After incubation in the dark for 1 hr at room temperature, 10 μL of streptavidin donor beads (PerkinElmer, Waltham, USA, 6760619C) (1:100 diluted in assay buffer) was added per well. After another 1 hr incubation, AlphaScreen signal was measured on the EnVision multimode plate reader (PerkinElmer, Waltham, USA). For THZ531 competition, FLAG-Avi-DDB1, 6xHis-CDK12KD/6xHis-CCNKΔC mix was preincubated with 5 μM of THZ531 for 30 min on ice followed by the procedures described above.
(In general: In Alpha technology, singlet oxygen from a donor bead excites a nearby acceptor bead.)

The subject of assay [2] is CCNK. Kind of assay: Western blotting of CCNK protein level in A549 cells. In kind it is cell-based, Homo sapiens. On the procedure: Standard SDS-PAGE and western blotting procedures were used with the following modifications. For preparation of total lysates, cells were rinsed with DPBS to remove residual medium and then lysed in 20 mM HEPES-NaOH, pH 8.0, 10 mM NaCl, 2 mM MgCl2, 1% SDS freshly supplemented with 0.5 units/µL of benzonase and 1x cOmplete, Mini, EDTA-free protease inhibitor cocktail (Roche, Bazel, Switzerland). Protein concentrations of the resulting lysates were quantified by the BCA method. Between 30 to 60 µg of proteins were resolved on SDS-PAGE and transferred to nitrocellulose membranes with a pore size of 0.5 μm. Membranes were blocked in 5% nonfat milk PBST (0.1% v/v Tween-20) for 30 min before blotting with antibodies. The following primary antibodies were used by dilution in 5% nonfat milk PBST: anti-NRF2 (Abcam, Cambridge, UK, ab62352, 1:4,000), anti-β-Actin-HRP (Huaxingbio, Beijing, China, HX18271,1:10,000), anti-α-Tubulin-HRFP (MBL Life Science, Japan, PM054-7, 1:10,000), anti-DDB1 (Abcam, Cambridge, UK, ab109027, 1:10,000), anti-RBX1 (Proteintech, Wuhan, China, 14895–1-AP, 1:5,000), anti-UBE2G1 (Proteintech, Wuhuan, China, 12012–1-AP, 1:2,000), anti-CDK12 (Cell Signaling Technology, Danvers, USA, 11973S,1:4,000), anti-CCNK (Bethyl lab, Montgomery, USA, A301-939A-T,1:4,000), anti-FLAG-HRP (Sigma-Aldrich, MO, USA, A8592, 1:10,000), anti-HA (BioLegend, San Diego, USA, 901533, 1:4,000), anti-RNA polymerase II subunit B1 (phospho CTD Ser-2) clone 3E10 (Sigma-Aldrich, MO, USA, 04–1571, 1:5,000), and anti-RNA polymerase II CTD repeat YSPTSPS antibody clone 8WG16 (Abcam, Cambridge, UK, ab817, 1:5,000). The following HRP-linked secondary antibodies were used by dilution in PBST: anti-rabbit IgG (Cell Signaling Technology, Danvers, USA, 7074S, 1:10,000), anti-mouse IgG (Zsbio, Beijing, China, ZB-2305, 1:10,000), and anti-rat IgG, (Sino Biological, Beijing, China, SSA005, 1:10,000). M5 HiPer ECL Western HRP Substrate (Mei5bio, Beijing, China, MF074-01) was used for the detection of HRP enzymatic activity. Western blot images were taken with a VILBER FUSION FX7 imager.
A general note: Immunoblotting shows a protein as a band on a membrane.

Assay [3] deals with T2, CDK12 (Homo sapiens, UniProt Q9NYV4).
T2 construct: Western blotting of CDK12 and CCNK from A549 cells treated with HQ461; endogenous in cells; host or cells: A549
T2 sequence (Q9NYV4 whole entry): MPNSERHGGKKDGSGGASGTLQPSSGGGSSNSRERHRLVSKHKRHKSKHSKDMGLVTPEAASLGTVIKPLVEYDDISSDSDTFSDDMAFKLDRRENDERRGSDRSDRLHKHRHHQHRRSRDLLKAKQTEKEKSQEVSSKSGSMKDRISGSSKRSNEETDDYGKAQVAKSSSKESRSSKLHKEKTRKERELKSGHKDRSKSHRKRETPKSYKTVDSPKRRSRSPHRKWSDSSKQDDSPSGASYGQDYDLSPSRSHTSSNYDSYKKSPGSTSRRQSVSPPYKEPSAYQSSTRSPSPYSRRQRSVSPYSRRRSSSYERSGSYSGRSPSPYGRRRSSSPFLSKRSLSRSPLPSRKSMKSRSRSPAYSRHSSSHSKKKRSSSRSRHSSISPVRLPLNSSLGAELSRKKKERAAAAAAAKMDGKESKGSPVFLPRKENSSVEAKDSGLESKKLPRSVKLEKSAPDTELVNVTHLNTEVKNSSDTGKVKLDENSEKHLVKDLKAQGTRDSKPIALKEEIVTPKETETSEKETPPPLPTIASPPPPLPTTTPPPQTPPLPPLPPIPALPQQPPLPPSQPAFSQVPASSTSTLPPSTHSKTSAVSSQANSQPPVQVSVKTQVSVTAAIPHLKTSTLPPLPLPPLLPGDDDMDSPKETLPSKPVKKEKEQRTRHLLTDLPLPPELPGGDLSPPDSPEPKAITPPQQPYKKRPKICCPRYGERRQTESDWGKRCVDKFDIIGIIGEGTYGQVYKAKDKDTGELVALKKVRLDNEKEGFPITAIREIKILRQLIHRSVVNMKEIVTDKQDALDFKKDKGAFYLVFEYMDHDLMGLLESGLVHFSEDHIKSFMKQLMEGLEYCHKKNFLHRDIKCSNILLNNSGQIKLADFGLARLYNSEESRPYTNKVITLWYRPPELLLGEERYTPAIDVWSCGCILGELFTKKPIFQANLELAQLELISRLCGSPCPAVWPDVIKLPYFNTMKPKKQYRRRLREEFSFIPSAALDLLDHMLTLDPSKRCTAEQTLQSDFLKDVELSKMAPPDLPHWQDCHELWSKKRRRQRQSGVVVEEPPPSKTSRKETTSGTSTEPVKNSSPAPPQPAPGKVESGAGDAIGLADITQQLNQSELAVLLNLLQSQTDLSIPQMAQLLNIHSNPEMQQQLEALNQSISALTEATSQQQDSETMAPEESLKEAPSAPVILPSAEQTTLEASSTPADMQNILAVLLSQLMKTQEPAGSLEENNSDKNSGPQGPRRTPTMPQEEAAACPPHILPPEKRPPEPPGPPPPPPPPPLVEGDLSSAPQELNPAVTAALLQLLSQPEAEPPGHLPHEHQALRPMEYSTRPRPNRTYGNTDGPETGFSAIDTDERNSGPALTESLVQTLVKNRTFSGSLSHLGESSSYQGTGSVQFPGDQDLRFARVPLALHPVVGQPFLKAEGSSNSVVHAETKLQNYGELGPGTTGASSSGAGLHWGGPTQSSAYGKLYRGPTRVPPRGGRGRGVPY
T2 sequence (O75909 whole entry partner): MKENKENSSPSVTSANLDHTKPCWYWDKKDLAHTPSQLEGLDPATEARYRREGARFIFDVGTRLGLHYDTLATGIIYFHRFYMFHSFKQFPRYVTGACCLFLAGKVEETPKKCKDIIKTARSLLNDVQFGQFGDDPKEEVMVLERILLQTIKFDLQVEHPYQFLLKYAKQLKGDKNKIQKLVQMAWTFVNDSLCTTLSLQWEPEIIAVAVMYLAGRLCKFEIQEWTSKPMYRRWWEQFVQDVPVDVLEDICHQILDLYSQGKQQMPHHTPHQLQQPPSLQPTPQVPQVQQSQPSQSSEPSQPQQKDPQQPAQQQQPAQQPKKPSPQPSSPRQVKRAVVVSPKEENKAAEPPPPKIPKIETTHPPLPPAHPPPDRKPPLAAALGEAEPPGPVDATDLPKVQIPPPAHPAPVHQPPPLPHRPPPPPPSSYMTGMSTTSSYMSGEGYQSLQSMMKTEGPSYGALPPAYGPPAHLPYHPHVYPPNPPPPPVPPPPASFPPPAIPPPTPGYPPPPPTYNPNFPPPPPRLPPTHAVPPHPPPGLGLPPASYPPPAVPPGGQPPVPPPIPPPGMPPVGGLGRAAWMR
Kind of assay: Western blotting of CDK12 protein level in A549 cells. The assay is classed as cell-based. The conditions noted are these: A549, after 8 hr of treatment. The protocol:
Standard SDS-PAGE and western blotting procedures were used with the following modifications. For preparation of total lysates, cells were rinsed with DPBS to remove residual medium and then lysed in 20 mM HEPES-NaOH, pH 8.0, 10 mM NaCl, 2 mM MgCl2, 1% SDS freshly supplemented with 0.5 units/µL of benzonase and 1x cOmplete, Mini, EDTA-free protease inhibitor cocktail (Roche, Bazel, Switzerland). Protein concentrations of the resulting lysates were quantified by the BCA method. Between 30 to 60 µg of proteins were resolved on SDS-PAGE and transferred to nitrocellulose membranes with a pore size of 0.5 μm. Membranes were blocked in 5% nonfat milk PBST (0.1% v/v Tween-20) for 30 min before blotting with antibodies. […]

For assay [4], the target named is T3, FLAG-Avi-DDB1 and His-CDK12KD G731E/His-CCNKΔC (Homo sapiens, UniProt Q9NYV4, G731E).
T3 construct: Human CDK12KD (residues 715–1052); made in house; host or cells: Sf9 or High Five (CDK12KD/CCNKΔC, co-infected with yeast CAK1); 293F with BirA (FLAG-Avi-DDB1)
T3 sequence (Q9NYV4 715-1052 G731E limits assumed): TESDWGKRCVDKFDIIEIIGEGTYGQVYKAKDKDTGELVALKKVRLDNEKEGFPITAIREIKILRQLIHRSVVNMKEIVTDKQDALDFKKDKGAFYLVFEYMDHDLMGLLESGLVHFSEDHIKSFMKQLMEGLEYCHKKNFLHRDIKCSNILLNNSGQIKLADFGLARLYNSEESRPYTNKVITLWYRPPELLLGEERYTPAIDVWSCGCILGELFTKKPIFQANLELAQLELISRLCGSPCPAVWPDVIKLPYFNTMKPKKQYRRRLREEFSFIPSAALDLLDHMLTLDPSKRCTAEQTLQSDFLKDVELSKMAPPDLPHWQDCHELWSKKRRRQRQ
T3 sequence (O75909 11-267 partner limits assumed): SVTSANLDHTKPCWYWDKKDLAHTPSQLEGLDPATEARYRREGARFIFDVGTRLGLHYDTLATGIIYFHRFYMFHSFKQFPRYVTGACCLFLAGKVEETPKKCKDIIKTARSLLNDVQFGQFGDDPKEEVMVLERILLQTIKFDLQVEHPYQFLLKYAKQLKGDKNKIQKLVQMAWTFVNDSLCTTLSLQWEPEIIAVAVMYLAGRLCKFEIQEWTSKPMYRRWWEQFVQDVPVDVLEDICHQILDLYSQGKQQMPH
As to the kind of experiment: AlphaScreen assay, G731E. The assay is classed as binding. Conditions: for AlphaScreen: G731E, raw signal. On the procedure:
as §1

T1 sequence (Q9NYV4 715-1052 G731R limits assumed): as the sequence (Q9NYV4 715-1052 G731E limits assumed) above, with E17R counted along it
T1 sequence (O75909 11-267 partner limits assumed): as the sequence (O75909 11-267 partner limits assumed) above

As for `Cc1cccc(Nc2nc(CC(=O)Nc3ncc(C)s3)cs2)n1` [HQ461, 2-(2-((6-methylpyridin-2-yl)amino)thiazol-4-yl)-N-(5-methylthiazol-2-yl)acetamide], the AlphaScreen is 1045 and 1023 and 975 in assay [1] (HQ461 2.22e-6 M); 1107 and 1087 and 1018 in assay [1] (HQ461 6.67e-6 M); 1057 and 1369 and 1206 in assay [1] (HQ461 2e-5 M); 1123 and 959 and 996 in assay [1] (HQ461 2.47E-07 M); 1124 and 1117 and 796 in assay [1] (HQ461 2.74E-08 M); 1008 and 1006 and 1085 in assay [1] (HQ461 7.41E-07 M). Also, the AlphaScreen in assay [1] (HQ461 8.23E-08 M) was 1162 and 1262 and 828; in assay [4] (HQ461 2.22e-6 M), 1248 and 1240 and 1185; in assay [4] (HQ461 6.67e-6 M) it was 1251 and 1198 and 1100; in assay [4] (HQ461 2e-5 M), 1233 and 1200 and 1143; in assay [4] (HQ461 2.47E-07 M), 1234 and 1107 and 1145; in assay [4] (HQ461 2.74E-08 M) it was 1248 and 1124 and 1169. In addition, the AlphaScreen in assay [4] (HQ461 7.41E-07 M) is 1137 and 1171 and 1109; in assay [4] (HQ461 8.23E-08 M) it was 1304 and 1157 and 1110. Besides, in assay [1] (even with 20 µM of HQ461), the “complex formation with DDB1, G731R mutant” value is reported as “did not form a complex with DDB1”. The “reduction of the CCNK protein level” value in assay [2] (A549, 4 hr treatment) was over 8 fold. The “CCNK protein level in cells with CDK12 G731E or G731R mutation” value in assay [2] (A549 CDK12 G731E/G731R cells) is “not affected”. In addition, the “reduction of CDK12 protein level” value in assay [3] was 50%. Moreover, in assay [4] (even with 20 µM of HQ461), the “complex formation with DDB1, G731E mutant” value was “did not form a complex with DDB1”.
